Laboratory results reported in patent US20140161342A1, “DENSITY-BASED METHOD OF COMPARING IMAGES AND DETECTION OF MORPHOLOGICAL CHANGES USING THE METHOD THEREOF” (CENTRE NATIONAL DE LA RECHERCHE SCIENTIFIQUE CNRS, priority 2011, published 2014).

Tests used:
Assay type in all cases: cell-based, Human
microtubules = assay: Density-based comparison of microtubules (β-tubulin stain), micropatterned RPE-1 cells; set-up: dose or concentration left out as unconfirmed; conditions: nocodazole; 16 cells of CG, 16 cells of TG; tubulin structures
Method: Human RPE-1 cells kept in growth medium were trypsinized and seeded on micropattern-printed coverslips as described in EP 1664266. To depolymerize microtubules, nocodazole was added to a final concentration of 10 M to TG. TG and CG were both subsequently incubated for 1 h at 4° C. and 1 h at 37° C. Cells were fixed with 4% (wt/vol) paraformaldehyde (PFA) and proceeded for indirect immunofluorescence staining with primary β-tubulin antibodies (Sigma-Aldrich) to visualize microtubules and fluorophore-coupled secondary antibodies.
3D image stacks of n cells of each condition (TG and CG) were acquired with 100× magnification and Z-series every 0.2 m. Images were deconvolved and segmented in order to detect signals that are larger than noise. To represent continuous structures (microtubules and Rab8-marked membranes domains) by a cloud of coordinates, we “cut” them in several small structures by increasing the watershed during segmentation. The coordinates of the segmented structures from all cells were aligned using the micropattern geometry and the coordinate sample of the TG was compared with the coordinate sample of the CG using the above-described method for each intracellular compartment analyzed.
Each coordinate stands for one fluorescent fragment. […]

[1] = test system: endoplasmic reticulum exit sites (ERES); assay: Density-based comparison of endoplasmic reticulum exit sites (ERES), Sec13 stain, micropatterned RPE-1 cells; conditions: nocodazole 10 μM, 15 cells of CG, 11 cells of TG
Method: (§1) Human RPE-1 cells kept in growth medium were trypsinized and seeded on micropattern-printed coverslips as described in EP 1664266. To depolymerize microtubules, nocodazole was added to a final concentration of 10 μM to TG. TG and CG were both subsequently incubated for 1 h at 4° C. and 1 h at 37° C. Cells were fixed with 4% (wt/vol) paraformaldehyde (PFA) and proceeded for indirect immunofluorescence staining with primary α-CD63 antibodies (Invitrogen) to visualize MVB, α-GM130 antibodies to visualize the Golgi apparatus and α-Sec13 antibodies to visualize ERES as well as fluorophore-coupled secondary antibodies. 3D image stacks of n cells of each condition (TG and CG) were acquired with 100× magnification and Z-series every 0.2 μm. Images were deconvolved and segmented in order to detect signals that are fifteen-fold larger than noise. The coordinates of the segmented structures from all cells were aligned using the micropattern geometry and the coordinate sample of the TG was compared with the coordinate sample of the CG using the above-described method for each intracellular compartment analyzed.
Parts A and B of FIG. 7 illustrate representative fluorescent images of one cell from CG (designated by “Crtl”) and one cell from TG (designated by “NZ” for nocodazole) stained for ERES. […]

Golgi apparatus = assay: Density-based comparison of Golgi apparatus morphology, GM130 stain, micropatterned RPE-1 cells; conditions: nocodazole 10 μM, 15 cells of CG, 20 cells of TG
Method: as §1
Parts A and B of FIG. 6 illustrate representative fluorescent images of one cell from CG (designated by “Crtl”) and one cell from TG (designated by “NZ” for nocodazole) stained for the Golgi apparatus. […]

[2] = test system: multivesicular bodies (MVB); assay: Density-based comparison of multivesicular body (MVB) morphology, CD63 stain, micropatterned RPE-1 cells; conditions: nocodazole 10 μM, 1 h at 4° C. and 1 h at 37° C., 40 cells of CG, 40 cells of TG
Method: as §1, with “Images were deconvolved and segmented in order to detect signals that are fifteen-fold larger than noise.” left out
Parts A and B of FIG. 5 illustrate representative fluorescent images of one cell from CG (designated by “Crtl”) and one cell from TG (designated by “NZ” for nocodazole) stained for MVB. […] As shown in prior art, the steady-sate three-dimensional organization of MVB is constant in micropatterned cells as analyzed here. […]

[3] = test system: multivesicular bodies (MVB); assay: Live cell analysis of MVB in unconstrained EGFP-CD63-expressing RPE-1 cells; conditions: nocodazole 20 μM, last six time frames after addition
Method: In this example, morphological changes in the steady-state organization of MVB were monitored in a time period between two instants t1 and t2 when using a drug treatment. Thus, the density-based method of the present invention is applied to life cell analysis. More precisely, MVB were analyzed in unconstrained cells before and after treatment with nocodazole, illustrating that the present invention is not limited to the comparison of constrained cells but can also apply to the comparative study of unconstrained cells.
EGFP-CD63-expressing stable cells (generated by transfection of the plasmid pEGFP-CD63, Ostrowski et al. NATURE CELL BIOLOGY, January 2010) into RPE-1 cells and selection with 500 μg/ml geneticin) were seeded on iwaki glass base dishes (Asahi Glass) for live cell observation. To depolymerize microtubules, nocodazole (NZ) was added to a final concentration of 20 μM. […] The first two groups contained images in the absence of the drug (CG1 and CG2) and the second two groups contained images in the presence of the drug (TG1 and TG2) recorded after the addition of the drug. […]
Groups CG1 and CG2 are non-treated control groups with 1080 and 1002 detected CD63-positive structures that were acquired before addition of the drug.
Groups TG1 and TG2 are treated test groups containing 1019 and 801 structures that were recorded after the addition of the drug. […]

Q: For `COC(=O)Nc1nc2ccc(C(=O)c3cccs3)cc2[nH]1` [nocodazole], which “P2D-value, comparison TG/CG” value (microtubules) is on record?
A: 6.5862*10^−41

Q: What about the “P3D-value, comparison TG/CG” value (microtubules) of the same compound?
A: 2.7758*10^−228

Q: What about the “P2D-value, comparison TG/CG” value [1] of the same compound?
A: 0.3416*10^−3

Q: What about the “P3D-value, comparison TG/CG” value [1] of the same compound?
A: 0.1118*10^−6

Q: What about the “P2D-value, comparison TG/CG” value (Golgi apparatus) of the same compound?
A: 0.9524*10^−2

Q: And the “P3D-value, comparison TG/CG” value (Golgi apparatus)?
A: 1.8741*10^−2

Q: What about the “P2D-value, comparison TG/CG” value [2] of the same compound?
A: 1.589*10^−5

Q: And the “P3D-value, comparison TG/CG” value [2]?
A: 1.280*10^−11

Q: What about the “P2D-value, non-treated group CG1 vs treated group TG2” value [3] of the same compound?
A: 4.00*10^−6

Q: What about the “P3D-value, non-treated group CG1 vs treated group TG2” value [3] of the same compound?
A: 4.84*10^−6
